According to patent publication US20050215562A1, “Methods for treating protein aggregation disorders” (priority 2003, published 2005):

Key:
NAC peptide [1] = target: T1, NAC peptide (Homo sapiens, UniProt P37840); experiment: Circular dichroism (CD) analysis of NAC peptide conformation after incubation with test compounds (fibrillogenesis assay); assay type: biochemical; set-up: key to CD Result (NAC conformation observed): Random Coil: signifies that the NAC in the sample was observed to have been maintained in its original random coil conformation indicating that the compound coincubated with NAC is active; signifies that the compound was not able to prevent the shift from random coil to β-sheet; β-sheet/β-turn: signifies that the compound was not able to prevent the shift from random coil to β-sheet; Transition: signifies that the NAC was observed to be in the process of converting from random coil to β-sheet indicating that the compound was able to slow down the conformational change and indicates activity; conditions: for CD Result (NAC conformation observed): 125 μL of 40 μM NAC peptide with 125 μL of 200 μM test compound, pH 7.4, 37° C., conformations over repeated trials; for Activity (CD): active if it prevents the transition to β-turn/β-sheet in 50% or more of the trials; for Activity: active trials / trials: number of CD trials in which transition to β-turn/β-sheet was prevented, over trials run
T1 construct: a 35 amino acid peptide corresponding to residues 61 to 95 of the α-synuclein protein; made in house; host or cells: chemical solid-phase peptide synthesis (Fmoc), not expressed
Experimental: 2 mM Solutions were prepared in TBSA buffer (Tris 0.02 M, NaCl 0.15 M, NaN3 0.005%, pH 7.4) and stored at 4° C. For the assays, compounds were diluted to the desired concentrations in TBSAE buffer (Tris 0.02 M, NaCl 0.15 M, NaN3 0.005%, EDTA 100 μM, pH 7.4) and combined with the NAC peptides.
Fibrillogenesis assays were employed to identify test compounds that inhibit NAC's ability to assemble into fibers. Following removal of HFIP by evaporation under N2 gas, 20 μM NAC peptide is incubated in the assay buffer (0.02M Tris, 0.15 M NaCl, 0.005% NaN3, 100 uM EDTA) at 37° C. in a Perkin-Elmer HTS 7000 plus microplate reader with shaking for 1 minute every twenty minutes. The presence of fibers can be monitored by three different methods.
The following assays were set up in clear polystyrene 96 well microplates by combining 125 μL of 40 μM NAC peptide with 125 μL of 200 μM test compound in 0.02M Tris, 0.15 M NaCl, 0.005% NaN3, […]. The microplates were sealed with a plastic sheet and incubated at 37° C. in a Perkin-Elmer HTS 7000 microplate reader with shaking for 1 minute, every 20 minutes. • Thioflavin T Analysis. To perform this assay 5 μM Thioflavin T is added to the NAC assembly conditions described above. The fluorescence is measured at 430 excitation/485 emission every twenty minutes with a Perkin-Elmer HTS microplate reader for the duration of the assay. […] This assay allows for the identification of compounds that can inhibit this increase in fluorescence upon incubation. • Turbidity Analysis. Alternatively, NAC peptide that has been incubated with test compounds in the appropriate assembly conditions can be analyzed by reading the absorbance at 405 nm to follow the turbidity of the solution which is also an indication of the formation of aggregates. • Circular Dichroism (CD) Analysis. […] This assay allows for the identification of compounds that can prevent NAC from adopting a β-sheet/β-turn conformation upon incubation. • At the appropriate time point, during the incubation, the test solutions were transferred to 0.1-cm path length quartz cuvettes and scanned by CD spectroscopy between 190 and 260 nm, with a resolution of 0.1 nm and a bandwidth of 1 nm using a Jasco J-715 spectropolarimeter at 37° C. […] At the time point at which CD scans are performed a 3 μl aliquot is removed from the sample, spotted onto a Formvar grid and then negatively stained with 4% uranyl acetate. The grids were examined for the presence of fibrils and amorphous aggregates using a JOEL 2000 transmission electron microscope at a 25,000 × magnification. This assay can be used to confirm the absence of fibers in the presence of compounds which inhibit NAC assembly by ThT and CD. The final results were obtained by averaging 10 complete sectors.
For compounds that have been tested multiple times, a compound is classified as active if it prevents the transition to β-turn/β-sheet in 50% or more of the trials.

NAC peptide [2] = target: T1, NAC peptide; experiment: Binding of compounds to NAC peptide by electrospray mass spectrometry; conditions: area of bound NAC-compound complex peaks divided by area of unbound NAC peaks; 5:1 compound:NAC, pH 7.4, 6.6% EtOH
Experimental: The ability of the compounds of the present invention to bind to NAC peptide in aqueous solution was evaluated. The binding ability correlates to the intensities of the peptide-compound complex peaks observed by the Electrospray Mass Spectrum. Millipore distilled deionized water was used to prepare all aqueous solutions. For pH determination a Beckman (Φ36 pH meter fitted with a Corning Semi-Micro Combination pH Electrode was employed.
The optimal cone voltage was determined to be 20V.
Mass spectrometry: Mass spectrometric analysis was performed using a Waters ZQ 4000 mass spectrometer equipped with a Waters 2795 sample manager. MassLynx 4.0 (earlier by MassLynx 3.5) was used for data processing and analysis. Test compounds were mixed with disaggregated peptides in aqueous media (6.6% EtOH) at a 5:1 ratio (20 μM NAC: 100 μM of test compound or 40 μM NAC : 200 μM of test compound). The pH of the mixture was adjusted to 7.4 (±0.2) using 0.1% NaOH (3-5 μL). Periodically, NAC peptide solution at 20 μM or 40 μM was also prepared in the same fashion and run as control. The spectra were obtained by introducing the solutions to the electrospray source by direct infusion using a syringe pump at a flow rate of 25 μl/min, and scanning from 100 to 2100 Da in the positive mode. The scan time was 0.9 sec per scan with an inter-scan delay of 0.1 sec and the run time was 5 min for each sample. All the mass spectra were sum of 300 scans. The desolvation and source temperature was 70° C. and the cone and capillary voltage were maintained at 20 V and 3.2 kV respectively.
The total area under the peaks for the bound NAC-compound complex divided by total area under the peaks for unbound NAC was determined for each compound tested.

Structure (SMILES)	CD Result (NAC conformation observed) (NAC peptide [1])	Activity (CD) (NAC peptide [1])	Activity: active trials / trials (NAC peptide [1])	Binding Strength (NAC peptide [2])
O=S(=O)(O)CCCCS(=O)(=O)O [compound 1]	Random Coil β-sheet	Yes	½	− (None; when the total binding is between 30% and 0%)
O=S(=O)(O)OCCCOS(=O)(=O)O [compound 2]	Random Coil TRansition	Yes	2/2	− (None; when the total binding is between 30% and 0%)
NCCOS(=O)(=O)O [compound 3]	β- turn/βsheet	No	0/2	− (None; when the total binding is between 30% and 0%)
NCCCOS(=O)(=O)O [compound 4]	β-turn	No	0/2	++ (Moderate; when the total binding is between 120% and 70%)
NCCS(=O)(=O)O [compound 5]	β-sheet	No	0/2	+ (Weak; when the total binding is between 70% and 30%)
NCCCCS(=O)(=O)O [compound 6]	β-turn transition	Yes	½	+++ (Strong; when the total binding is 120% and higher)
NCCCCS(=O)(=O)O [compound 7]	β- turn/βsheet Random coil Transition	Yes	2/4	++ (Moderate; when the total binding is between 120% and 70%)
CCCCCCCCCCCCS(C)(C)CCCS(C)(=O)=O [compound 9]	Random Coil	Yes	4/4	− (None; when the total binding is between 30% and 0%)
CCCCCCCCCCCCCCS(C)(C)CCCS(=O)(=O)O [compound 10]	Random Coil	Yes	5/5	+ (Weak; when the total binding is between 70% and 30%)
O=S(=O)(O)CCCNCCc1c[nH]c2ccccc12 [compound 17]	β-turn Transition	No	⅓	–
O=C1NCCCC[C@@H]1NCCCS(=O)(=O)O [compound 18]	β-sheet/β- turn	No	0/2	–
CC(C)(C)NCCCS(C)(=O)=O [compound 19]	Random Coil β-turn	Yes	½	–
CCCCCCNCCCS(=O)(=O)O [compound 20]	β-turn	No	0/2	–
O=S(=O)(O)CC(O)CNC1CCCCC1 (stereo not drawn) [compound 21]	β-sheet/β- turn Transition	No	⅓	–
O=S(=O)(O)CCCNC(Cc1ccccc1)c1ccccc1 (stereo not drawn) [compound 22]	Transition β-turn	No	⅔	–
CC(CCNC12C[C@H]3C[C@@H](C1)C[C@@H](C2)C3)S(=O)(=O)O (stereo partly drawn) [compound 23]	Random Coil β-sheet	Yes	½	–
O=S(=O)(O)CC(O)CNC12C[C@H]3C[C@@H](C1)C[C@@H](C2)C3 (stereo partly drawn) [compound 24]	Random Coil	Yes	2/2	–
O=S(=O)(O)CC(O)CNC1C2CC3CC(C2)CC1C3 (stereo not drawn) [compound 25]	Random Coil	Yes	2/2	–
O=S(=O)(O)CCCNC12C[C@H]3C[C@@H](C1)C[C@@H](C2)C3 [compound 26]	Transition β-turn	Yes	½	–
CCCC(CO)NCCC(C)S(=O)(=O)O (stereo not drawn) [compound 27]	β-sheet/β- turn	No	0/2	–
CC(C)(C)NCCCCS(=O)(=O)O [compound 28]	β-turn/β- sheet	No	0/3	–
CC(CC[N+]12CCC(CC1)CC2)S(=O)(=O)O (stereo not drawn) [compound 29]	β-turn	No	0/3	–
O=S(=O)(O)CCCC[N+]12CCC(CC1)CC2 [compound 30]	Random Coil β-sheet/β- turn	Yes	2/4	–
O=S(=O)([O-])CC(O)C[N+]12CCC(CC1)CC2 (stereo not drawn) [compound 31]	β-sheet/β- turn α-helix	No	⅓	–
O=S(=O)(O)CCC[N+]12CCC(CC1)CC2 [compound 32]	β-sheet/β- turn Random coil	No	¼	–
CC(C)CCNCC(O)CS(=O)(=O)O (stereo not drawn) [compound 33]	Random Coil β-sheet/β- turn	Yes	½	–
CC1CC(NCCCS(=O)(=O)O)CC(C)(C)C1 (stereo not drawn) [compound 34]	Random Coil β-sheet	Yes	½	–
CC(C)(C)C1CCC(NCCCS(=O)(=O)O)CC1 (stereo not drawn) [compound 35]	β-turn	No	0/2	–
O=C[C@H](Cc1ccccc1)NCCCS(=O)(=O)O [compound 36]	β-sheet	No	0/1	–
O=C[C@@H](Cc1ccccc1)N(O)CCCS(=O)(=O)O [compound 37]	β-sheet Transition	Yes	½	–
